Laboratory results from US20240252677A1, “ONE-COMPONENT DELIVERY SYSTEM FOR NUCLEIC ACIDS” (The Trustees of the University of Pennsylvania, priority 2021, published 2024).
Where two headings read alike, the source gives them in different places.

What was measured:
[1] = Dimensions (size, PDI) of DNPs co-assembled from IAJDs and Luc-mRNA by DLS; type: physicochemical
Outline: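 Hydrodynamic size and PDI were read by dynamic light scattering at 23 °C, 175° backscatter, 633 nm. Particles formed by fast injection of ethanolic IAJD stock (80 mg/mL) into nucleoside-modified luciferase mRNA (stock 4.0 mg/mL) in 10 mM acetate pH 4.0, 5 s vortex.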

[2] = pKa measurements of individual IAJD molecules by titration; type: physicochemical; conditions: ethanol saturated with NaCl, titrated with 0.1 M aqueous HCl; Table 15; individual IAJD molecule, titration
Outline: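 pKa derived by half-equivalence-point analysis of a pH-meter titration curve: 0.1 M HCl added in 7.5 μL increments to a 1.5 mg/mL solution of each molecule in ethanol saturated with NaCl.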

[3] = Table 16, IAJDs marked a (Zhang et al., J. Am. Chem. Soc. 2021); IAJD 4 mg/mL, Luc-mRNA 0.10 mg/mL, acetate buffer 10 mM pH 4.0; cited from earlier work
HEK293T cells = conditions: Table 16, IAJDs marked a (Zhang et al., J. Am. Chem. Soc. 2021); HEK 293T cells, 125 ng/well, n=3; cited from earlier work
spleen = assay: In vivo mRNA delivery, IVIS imaging of organs: spleen; design: species or system mice; key to Organs with luminescence: spleen: strong: Strong meant the luminescence intensity in that organ was relatively high, compared to other organs; weak: Weak meant the luminescence intensity in that organ was relatively low, compared to other organs; conditions: for Organs with luminescence: spleen (weak/strong): Table 14; for Organs with luminescence: spleen: Table 17, mice, IVIS, 4-6 h after injection, intensity relative to other organs
BALB/c mice = conditions: cited from earlier work
[4] = Table 12, DNPs, IAJD 4 mg/mL + Luc-mRNA 0.10 mg/mL, acetate buffer 10 mM pH 4.0
[5] = Table 13, DNPs, IAJD 4 mg/mL + Luc-mRNA 0.10 mg/mL, acetate buffer pH 4.0
[6] = Table 14, DNPs, IAJD 4 mg/mL + Luc-mRNA 0.10 mg/mL, acetate buffer pH 4.0
[7] = Table 17, DNPs used in vivo, IAJD 4 mg/mL, Luc-mRNA 0.10 mg/mL, acetate pH 4.0
[8] = Table 18, symmetric IAJDs, results available in the literature
[9] = Table 20, corresponding symmetric IAJDs (literature per Table 18)

CCCCCCCCCCCCCCCCCCOc1cc(COC(=O)CCCN2CCN(C)CC2)cc(OCCCCCCCCCCC)c1 [IAJD 81, 3-(Octadecyloxy)-5-(undecyloxy)benzyl 4-(4-methylpiperazin-1-yl)butanoate]
PDI [1, 4]: 0.287 | Size (d, nm) [1, 4]: 111 nm | PDI [1, 5]: 0.287 | Size (d, nm) [1, 5]: 111 nm | PDI [1, 6]: 0.287 | Size (d, nm) [1, 6]: 111 nm | PDI [1, 7]: 0.287 | Size (d, nm) [1, 7]: 111 nm | pKa [2]: 6.19 | PDI [3]: 0.287 | Size (d, nm) [3]: 111 nm | Luminescence (HEK293T cells): 206,161 | Organs with luminescence: spleen (weak/strong) (spleen; imaging 6 h after injection): spleen (weak) | Organs with luminescence: spleen (spleen): spleen (weak)

CCCCCCCCCCCCCCCCOc1cc(COC(=O)CCCN2CCN(C)CC2)cc(OCCCCCCCCCCC)c1 [IAJD 86, 3-(Hexadecyloxy)-5-(undecyloxy)benzyl 4-(4-methylpiperazin-1-yl)butanoate]
PDI [1, 4]: 0.234 | Size (d, nm) [1, 4]: 91 nm | PDI [1, 5]: 0.234 | Size (d, nm) [1, 5]: 91 nm | PDI [1, 6]: 0.234 | Size (d, nm) [1, 6]: 91 nm | PDI [1, 7]: 0.234 | Size (d, nm) [1, 7]: 91 nm | pKa [2]: 6.24 | PDI [3]: 0.234 | Size (d, nm) [3]: 91 nm | Luminescence (HEK293T cells): 47,066 | Organs with luminescence: spleen (weak/strong) (spleen; imaging 5 h after injection): spleen (weak) | Organs with luminescence: spleen (spleen): spleen (weak)

CCCCC(CC)COc1cc(COC(=O)CCCN2CCN(CCO)CC2)cc(OCC(CC)CCCC)c1 (stereo not shown) [IAJD 87, 3,5-Bis((2-ethylhexyl)oxy)benzyl 4-(4-(2-hydroxyethyl)piperazin-1-yl)butanoate]
In vivo activity (total flux, p/s) (BALB/c mice; [8]): 3.24 × 10^7 p/s | In vivo activity (total flux, p/s) (BALB/c mice; [9]): 3.24 × 10^7 p/s | PDI [1, 4]: 0.486 | Size (d, nm) [1, 4]: 146 nm | PDI [1, 5]: 0.486 | Size (d, nm) [1, 5]: 146 nm | PDI [1, 6]: 0.486 | Size (d, nm) [1, 6]: 146 nm | pKa [2]: 6.49 | Organs with luminescence: spleen (weak/strong) (spleen; imaging 6 h after injection): spleen (strong)

CCCCCCCCOc1cc(COC(=O)CCCN2CCN(C)CC2)cc(OCCCCCCCC)c1 [IAJD 88, 3,5-Bis(octyloxy)benzyl 4-(4-methylpiperazin-1-yl)butanoate]
In vivo activity (total flux, p/s) (BALB/c mice; [8]): 2.34 × 10^6 p/s | PDI [1, 4]: 0.342 | Size (d, nm) [1, 4]: 100 nm | PDI [1, 5]: 0.342 | Size (d, nm) [1, 5]: 100 nm | PDI [1, 6]: 0.342 | Size (d, nm) [1, 6]: 100 nm | pKa [2]: 6.28 | Organs with luminescence: spleen (weak/strong) (spleen; imaging 6 h after injection): spleen (strong)

CCCCCCCCOc1cc(COC(=O)CCCN2CCN(CCO)CC2)cc(OCCCCCCCC)c1 [IAJD 89]
In vivo activity (total flux, p/s) (BALB/c mice; [8]): 5.92 × 10^7 p/s | PDI [1, 4]: 0.467 | Size (d, nm) [1, 4]: 149 nm | PDI [1, 5]: 0.467 | Size (d, nm) [1, 5]: 149 nm | PDI [1, 6]: 0.467 | Size (d, nm) [1, 6]: 149 nm | pKa [2]: 6.45 | Organs with luminescence: spleen (weak/strong) (spleen; imaging 6 h after injection): spleen (strong)

CCCCCCCCCCOc1cc(COC(=O)CCCN2CCN(CCO)CC2)cc(OCCCCCCCCCC)c1 [IAJD 91, 3,5-Bis(decyloxy)benzyl 4-(4-(2-hydroxyethyl)piperazin-1-yl)butanoate]
In vivo activity (total flux, p/s) (BALB/c mice; [8]): 9.94 × 10^6 p/s | PDI [1, 4]: 0.498 | Size (d, nm) [1, 4]: 188 nm | PDI [1, 5]: 0.498 | Size (d, nm) [1, 5]: 188 nm | PDI [1, 6]: 0.498 | Size (d, nm) [1, 6]: 188 nm | pKa [2]: 6.48 | Organs with luminescence: spleen (weak/strong) (spleen; imaging 6 h after injection): spleen (strong)

CCCCCCCCCCCCCCCCCCOc1cc(COC(=O)CCCN2CCN(C)CC2)cc(OCCCCCCCCCCCCCCCCCC)c1 [IAJD 98, 3,5-Bis(octadecyloxy)benzyl 4-(4-methylpiperazin-1-yl)butanoate]
In vivo activity (total flux, p/s) (BALB/c mice; [8]): 2.06 × 10^6 p/s | In vivo activity (total flux, p/s) (BALB/c mice; [9]): 2.06 × 10^6 p/s | PDI [1, 4]: 0.221 | Size (d, nm) [1, 4]: 187 nm | PDI [1, 5]: 0.221 | Size (d, nm) [1, 5]: 187 nm | PDI [1, 6]: 0.221 | Size (d, nm) [1, 6]: 187 nm | pKa [2]: 6.25 | Organs with luminescence: spleen (weak/strong) (spleen; imaging 6 h after injection): spleen (strong)

CCCCCCCCCCCCCCCCCCOc1cc(COC(=O)CCCN2CCN(CCO)CC2)cc(OCCCCCCCCCCCCCCCCCC)c1 [IAJD 99, 3,5-Bis(octadecyloxy)benzyl 4-(4-(2-hydroxyethyl)piperazin-1-yl)butanoate]
In vivo activity (total flux, p/s) (BALB/c mice; [8]): 4.49 × 10^6 p/s | In vivo activity (total flux, p/s) (BALB/c mice; [9]): 4.49 × 10^6 p/s | PDI [1, 4]: 0.571 | Size (d, nm) [1, 4]: 277 nm | PDI [1, 5]: 0.571 | Size (d, nm) [1, 5]: 277 nm | PDI [1, 6]: 0.571 | Size (d, nm) [1, 6]: 277 nm | pKa [2]: 6.31 | Organs with luminescence: spleen (weak/strong) (spleen; imaging 6 h after injection): spleen (strong)

CCCCCCCCCCCCCCOc1cc(COC(=O)CCCN2CCN(C)CC2)cc(OCCCCCCCCCCC)c1 [IAJD 105, 3-(Tetradecyloxy)-5-(undecyloxy)benzyl 4-(4-methylpiperazin-1-yl)butanoate]
PDI [1, 4]: 0.294 | Size (d, nm) [1, 4]: 94 nm | PDI [1, 5]: 0.294 | Size (d, nm) [1, 5]: 94 nm | PDI [1, 6]: 0.294 | Size (d, nm) [1, 6]: 94 nm | PDI [1, 7]: 0.294 | Size (d, nm) [1, 7]: 94 nm | pKa [2]: 6.5 | PDI [3]: 0.294 | Size (d, nm) [3]: 94 nm | Luminescence (HEK293T cells): 85 | Organs with luminescence: spleen (weak/strong) (spleen; imaging 6 h after injection): spleen (weak) | Organs with luminescence: spleen (spleen): spleen (weak)

CCCCCCCCCCCCCCCCOc1cc(COC(=O)CCCN2CCN(C)CC2)cc(OCCCCCCCCCCCC)c1 [IAJD 106, 3-(Dodecyloxy)-5-(hexadecyloxy)benzyl 4-(4-methylpiperazin-1-yl)butanoate]
PDI [1, 4]: 0.275 | Size (d, nm) [1, 4]: 105 nm | PDI [1, 5]: 0.275 | Size (d, nm) [1, 5]: 105 nm | PDI [1, 6]: 0.275 | Size (d, nm) [1, 6]: 105 nm | PDI [1, 7]: 0.275 | Size (d, nm) [1, 7]: 105 nm | pKa [2]: 6.38 | PDI [3]: 0.275 | Size (d, nm) [3]: 105 nm | Luminescence (HEK293T cells): 309 | Organs with luminescence: spleen (weak/strong) (spleen; imaging 6 h after injection): spleen (strong) | Organs with luminescence: spleen (spleen): spleen (strong)

CCCCCCCCCCCCCCCCCCOc1cc(COC(=O)CCCN2CCN(C)CC2)cc(OCCCCCCCCCCCC)c1 [IAJD 107, 3-(Dodecyloxy)-5-(octadecyloxy)benzyl 4-(4-methylpiperazin-1-yl)butanoate]
PDI [1, 4]: 0.279 | Size (d, nm) [1, 4]: 146 nm | PDI [1, 5]: 0.279 | Size (d, nm) [1, 5]: 146 nm | PDI [1, 6]: 0.279 | Size (d, nm) [1, 6]: 146 nm | PDI [1, 7]: 0.279 | Size (d, nm) [1, 7]: 146 nm | pKa [2]: 6.42 | PDI [3]: 0.279 | Size (d, nm) [3]: 146 nm | Luminescence (HEK293T cells): 93,745 | Organs with luminescence: spleen (weak/strong) (spleen; imaging 6 h after injection): spleen (strong) | Organs with luminescence: spleen (spleen): spleen (strong)
